pIC50: −log10 of the molar value. Read-outs that look alike come from different tables or passages of the source.
What was measured:
Assay in all cases: cell-based
TraR = target: T1, TraR (Agrobacterium tumefaciens, UniProt P33905); conditions: for A. tumefaciens-TraR Activation [%]: 10 μM ligand; for A. tumefaciens-TraR Activation [%] / A. tumefaciens-TraR Inhibition [%] / inhibition at 10 µM: A. tumefaciens WCF47 (pCF372), normalized to OOHL; for A. tumefaciens-TraR Inhibition [%]: 10 μM synthetic ligand against 100 nM OOHL; for activation at 10 µM: read-out: A. tumefaciens-TraR Activation [%]; for inhibition at 10 µM: read-out: A. tumefaciens-TraR Inhibition [%], 10 μM synthetic ligand against 100 nM OOHL
T1 construct: These strains lack their AHL synthase (I) genes, but retain their native R genes; endogenous in cells; host or cells: A. tumefaciens WCF47 (Δ-traI) with PtraI-lacZ plasmid pCF372
T1 sequence (P33905 whole entry): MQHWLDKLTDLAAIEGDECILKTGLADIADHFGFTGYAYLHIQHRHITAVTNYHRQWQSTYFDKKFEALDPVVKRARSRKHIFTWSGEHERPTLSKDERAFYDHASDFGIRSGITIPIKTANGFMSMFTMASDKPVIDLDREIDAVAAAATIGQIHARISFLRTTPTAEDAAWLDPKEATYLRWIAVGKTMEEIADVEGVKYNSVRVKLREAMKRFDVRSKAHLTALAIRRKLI
Description: A. tumefaciens reporter gene assay protocols. […] An overnight culture of A. tumefaciens WCF47 (pCF372) was diluted to an OD600 of 0.1 in fresh AB minimal medium containing 400 μg/mL octopine and 50 μg/mL streptomycin. A 200 μL-portion of the diluted culture was added to each well of the multititer plate containing AHLs. Plates were grown at 28° C. for 18-20 h in a rotary shaking incubator (200 rpm). The cultures were then assayed for β-galactosidase activity following the Miller assay method. Briefly, 200 μL aliquots of bacteria from each of the wells were added to wells of a polystyrene 96-well plate and the OD600 of each well was recorded. Next, 50 μL aliquots from each well were transferred to a solvent resistant 96-well plate containing 200 μL Z buffer, 8 μL CHCl3 and 4 μL 0.1% aq. sodium dodecylsulfate (SDS). This suspension was mixed via repetitive pipetting, after which the CHCl3 was allowed to settle. A 100-μL aliquot from each well was transferred to a fresh polystyrene 96-well plate, and 20 μL of substrate, o-nitrophenyl-β-D-galactopyranoside (ONPG, 4 μg/mL in phosphate buffer), was added at time zero. After the development of appropriate yellow color (ca. 15-35 min), the reaction was terminated by the addition of 50 μL of 1 M Na2CO3. Absorbance at 420 nm and 550 nm was measured for each well using a plate reader, and Miller units were calculated according to standard methods.
(§1) Dose response reporter gene assays. […] IC50 and EC50 values were calculated using GraphPad Prism software (v. 4.0) using a sigmoidal curve fit.
A. tumefaciens reporter gene assay protocols. […] An overnight culture of A. tumefaciens WCF47 (pCF372) was diluted 1:10 with fresh AB minimal medium containing 400 μg/mL octopine and 50 μg/mL streptomycin. A 200 μL portion of the diluted culture was added to each well of the multititer plate containing AHLs. Plates were incubated at 28° C. for 18-24 h. The cultures were then assayed for β-galactosidase activity following the Miller assay method. Briefly, 200 μL aliquots of bacteria from each of the wells were added to wells of a 96-well multititer plate, and the OD600 of each well was recorded. Next, 50 μL aliquots from each well were transferred to a solvent resistant 96-well multititer plate containing 200 μL Z buffer, 8 μL CHCl3 and 4 μL 0.1% aq. SDS. This suspension was mixed via repetitive pipetting, after which the CHCl3 was allowed to settle. A 100 μL aliquot from each well was transferred to a fresh 96-well multititer plate, and 20 μL of substrate, o-nitrophenyl-β-D-galactopyranoside (ONPG, 4 μg/mL in phosphate buffer), was added at time zero. After the development of appropriate yellow color (ca. 20-30 min), the reaction was terminated by the addition of 50 μL of 1 M Na2CO3. Absorbances at 420 nm and 550 nm were measured for each well using a plate reader, and Miller units were calculated according to standard methods.
as §1

LasR [1] = target: T2, LasR (Pseudomonas aeruginosa, UniProt P25084); type: cell-based; conditions: for E. coli-LasR Inhibition [%]: 5 μM synthetic ligand against 7.5 nM OdDHL; for E. coli-LasR Inhibition [%] / inhibition at 5 µM: E. coli DH5α (pJN105L pSC11), normalized to OdDHL; for inhibition at 5 µM: read-out: E. coli-LasR Inhibition [%], 5 μM synthetic ligand against 7.5 nM OdDHL
T2 construct: expressed in transfected cells; host or cells: E. coli DH5α (pJN105L pSC11), arabinose-induced
T2 sequence (P25084 whole entry): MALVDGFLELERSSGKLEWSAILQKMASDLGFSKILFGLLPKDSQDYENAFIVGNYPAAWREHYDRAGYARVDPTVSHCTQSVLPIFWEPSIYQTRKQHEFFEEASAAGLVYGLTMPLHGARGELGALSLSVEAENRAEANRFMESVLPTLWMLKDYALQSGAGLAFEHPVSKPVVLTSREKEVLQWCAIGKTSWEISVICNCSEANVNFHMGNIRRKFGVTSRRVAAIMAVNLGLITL
Description: (§2) E. coli LasR reporter gene assay protocols. […] An overnight culture of E. coli DH5a (pJN105L pSC11) grown at 37° C. was subculture by diluting 1/10 in fresh LB medium containing 100 μg/mL ampicillin and 15 μg/mL gentamicin and shaking at 37° C. until OD600=0.3. Arabinose (4 mg/mL) was then added to induce the LasR promoter and a 200 μL-portion of this culture was added to each well of the multititer plate containing AHLs. Plates were grown at 37° C. for 2 hours in a rotary shaking incubator (200 rpm; OD600=0.45). The cultures were then assayed for activity following the identical β-galactosidase assay protocols used in the A. tumefaciens reporter gene assays.
as §1
(§3) E. coli LasR reporter gene assay protocols. […] An overnight culture of E. coli DH5α (pJN105L pSC11) was diluted 1:10 with fresh LB medium containing 100 μg/mL ampicillin and 15 μg/mL gentamicin. This sub-culture was incubated at 37° C. until OD600=0.3 (4-6 h). Arabinose (4 mg/mL) was then added to induce the LasR promoter, and a 200 μL portion of this culture was added to each well of the multititer plate containing AHLs. Plates were incubated at 37° C. until OD600=0.45 (4-6 h). The cultures were then assayed for LasR activity following the identical β-galactosidase assay protocols used in the A. tumefaciens reporter gene assays (see above).
as §1

LasR [2] = target: T2, LasR; conditions: for E. coli-LasR Activation [%]: 5 μM ligand; for E. coli-LasR Activation [%] / activation at 5 µM: E. coli DH5α (pJN105L pSC11), normalized to OdDHL; for activation at 5 µM: read-out: E. coli-LasR Activation [%], 5 μM ligand
Description: as §2, §1, §3, §1

LuxR [3] = target: T3, LuxR (Aliivibrio fischeri, UniProt P35327); type: cell-based, Vibrio fischeri; conditions: for V. fischeri-LuxR Inhibition [%]: 5 μM synthetic ligand against 5 μM OHHL; for V. fischeri-LuxR Inhibition [%] / inhibition at 5 µM: V. fischeri ES114 (Δ-luxI), normalized to OHHL; for pIC50: LuxR IC50, determined against 5 μM OHHL; for inhibition at 5 µM: read-out: V. fischeri-LuxR Inhibition [%], 5 μM synthetic ligand against 5 μM OHHL
T3 construct: a Δ-luxI derivative of V. fischeri ES114, in which the native lux operon behaves as the bioluminescent reporter; endogenous in cells; host or cells: V. fischeri ES114 (Δ-luxI)
T3 sequence (P35327 whole entry): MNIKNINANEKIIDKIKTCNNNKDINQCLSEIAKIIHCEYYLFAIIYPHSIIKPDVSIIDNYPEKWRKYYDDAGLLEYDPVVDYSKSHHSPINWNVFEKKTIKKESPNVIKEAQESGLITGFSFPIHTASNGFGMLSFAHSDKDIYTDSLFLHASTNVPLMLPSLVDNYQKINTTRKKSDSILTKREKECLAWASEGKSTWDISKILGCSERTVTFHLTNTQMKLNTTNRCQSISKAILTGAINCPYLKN
Description: (§4) Luminescence assays. For agonism assays, an appropriate amount of AHL stock solution was added into a 96-well plate. An overnight culture of E. coli or V. fischeri was diluted 1:10 with appropriate media (LB plus 10 μg/mL tetracycline for E. coli; LBS for V. fischeri). A 200-μL portion of the diluted culture was added to each well of the plate. Plates were grown for 4-8 h with shaking (200 rpm; 30° C. for E. coli and RT for V. fischeri). Luminescence was measured using a multilabel plate reader and normalized to cell density. […] All assays were performed in triplicate. Graphpad Prism software was used to calculate IC50 and EC50 values.
(§5) Vibrio fischeri assay procedures. […] An overnight culture of V. fischeri ES114 (WT, Δ-luxI or Δ-luxR) was diluted 1:10 with LBS medium. A-200 μL portion of the diluted culture was added to each well of the plate. Plates were grown at RT with shaking (200 rpm) until the OD600=0.35-0.4 (4-6 h). Luminescence then was measured and normalized to cell density per well. […] All assays were performed in triplicate. IC50 and EC50 values were calculated using GraphPad Prism software using a sigmoidal curve fit.
(§6) V. fischeri reporter gene assay protocols. […] An overnight culture of V. fischeri ES114 (D-luxI) was diluted 1:10 with LBS medium. A 200-μL portion of the diluted culture was added to each well of the multititer plate. Plates were grown at RT with shaking (200 rpm) until the OD600=0.35-0.4 (4-6 h). Luminescence then was measured and normalized to cell density per well.
as §1
as §6, with “(Δ-luxI)” for “(D-luxI)”, “A200 μL” for “A 200-μL”, “incubated” for “grown”, “RT” for “RT with shaking (200 rpm)”
as §1

LuxR [4] = target: T3, LuxR; set-up: species or system Vibrio fischeri; conditions: for V. fischeri-LuxR Activation [%]: 200 μM ligand; for V. fischeri-LuxR Activation [%] / activation at 200 µM: V. fischeri ES114 (Δ-luxI), normalized to OHHL; for activation at 200 µM: read-out: V. fischeri-LuxR Activation [%], 200 μM ligand
Description: as §4, §5, §6, §1
as §6, with “(Δ-luxI)” for “(D-luxI)”, “A200 μL” for “A 200-μL”, “incubated” for “grown”, “RT” for “RT with shaking (200 rpm)”
as §1

[5] = determined against 100 nM OOHL, read-out: TraR IC50

Compound | A. tumefaciens-TraR Activation [%] (TraR) | A. tumefaciens-TraR Inhibition [%] (TraR) | E. coli-LasR Inhibition [%] (LasR [1]) | E. coli-LasR Activation [%] (LasR [2]) | V. fischeri-LuxR Inhibition [%] (LuxR [3]) | V. fischeri-LuxR Activation [%] (LuxR [4]) | other results
CC(C)(C)OC(=O)NCc1ccc(C(=O)N[C@H]2CCOC2=O)cc1 [A21] | 0% | 13% | 12% | 0% | 35% | 1% | 
O=C(Cc1ccccc1I)N[C@H]1CCOC1=O [B15] | 0% | 5% | 17% | 0% | 63% | 7% | 
COc1ccc(CC(=O)N[C@H]2CCOC2=O)cc1 [C24] |  |  |  |  |  |  | Activation (%) (TraR; A. tumefaciens-TraR, Library C primary agonism screen): 0%; Inhibition (%) (TraR; A. tumefaciens-TraR, Library C primary antagonism screen): 26%; Inhibition (%) (LasR [1]; E. coli-LasR, Library C primary antagonism screen): 16%; Activation (%) (LasR [2]; E. coli-LasR, Library C primary agonism screen): 0%; Inhibition (%) (LuxR [3]; V. fischeri-LuxR, Library C primary antagonism screen): 57%; Activation (%) (LuxR [4]; V. fischeri-LuxR, Library C primary agonism screen): 3%
CCOC(=O)/C=C/C(=O)N[C@H]1CCOC1=O [A20] | 0% | 3% | 13% | 0% | 37% | 1% | 
O=C(CCCc1c[nH]c2ccccc12)N[C@@H]1CCOC1=O [A29] | 0% | 9% | 13% | 0% | 29% | 2% | 
4-hydroxy PHL [B27] | 0% | 3% | 7% | 0% | 12% | 2% | 
CC(=O)c1ccc(OCC(=O)N[C@H]2CCOC2=O)cc1C [D17] | 1% | 92% | 26% | 0% | 50% | 2% | pIC50 (TraR; [5]): 5.85
CCCCCCC(=O)NC1CCOC1=O (stereo not shown) [compound 4] |  |  |  |  |  |  | pIC50 (TraR): 6.16; activation at 10 µM (TraR): 4%; inhibition at 10 µM (TraR): ~90%; inhibition at 5 µM (LasR [1]): ~25%; activation at 5 µM (LasR [2]): 0%; pIC50 (LuxR [3]): 5.87; inhibition at 5 µM (LuxR [3]): ~76%; activation at 200 µM (LuxR [4]): ~25%
COc1cc(C(C)=O)ccc1OCC(=O)N[C@H]1CCOC1=O [D16] | 0% | 11% | 18% | 0% | 40% | 1% | 
CCOc1ccc(CC(=O)N[C@H]2CCOC2=O)cc1 [B29] | 0% | 35% | 15% | 0% | 55% | 2% | 
D-enantiomer of OOHL [A24] | 4% | 6% | 16% | 0% | 7% | 2% | 
O=C(Cc1ccc(N=Nc2ccccc2)cc1)NC1CCOC1=O (stereo not shown) [B22] | 0% | 9% | 13% | 1% | 63% | 3% | 
CCCCCCCC(=O)N[C@H]1CCOC1=O [A3, C8 AHL] |  |  | 43% |  |  |  | pIC50 (TraR; [5]): 6.11; activation at 10 µM (TraR): 7%; inhibition at 10 µM (TraR): 83%; pIC50 (LasR [1]; determined against 7.5 nM OdDHL, read-out: LasR IC50): 5.76; inhibition at 5 µM (LasR [1]): ≥ 50%; activation at 5 µM (LasR [2]): 1%; pIC50 (LuxR [3]): 6.11; inhibition at 5 µM (LuxR [3]): 86%; activation at 200 µM (LuxR [4]): 12%
COc1ccc(CC(=O)N[C@H]2CCOC2=O)cc1 [B28] | 0% | 26% | 16% | 0% | 57% | 3% | 

— patent publication US7910622B2, “Modulation of bacterial quorum sensing with synthetic ligands” (Wisconsin Alumni Research Foundation, priority 2007, dated 2011)
